The record followed here is patent US8993543B2, “Diphenyl sulfide derivative and pharmaceutical product which contains same as active ingredient” (Kyorin Pharmaceutical Co., Ltd., priority 2010, dated 2015).

Experiment [1] concerns the target T1, S1P1 receptor (Homo sapiens, UniProt P21453). In words: Intracellular calcium mobilization derivative test (agonist action) in human S1P1 receptor-expression CHO cells. As to conditions: agonist mode, up to 10 μM. The format is cell-based. Also on record: expressed in transfected cells; host or cells: CHO cells (Geneticin selection). Here is the method: Intracellular Calcium Mobilization Derivative Test of Test Compound Against Human S1P1 Receptor-Expression Cell
Human S1P1 receptor-expression CHO cells were subcultured in a Ham's F-12 culture medium containing 10% fetal bovine serum, and 300 μg/mL of Geneticin. The human S1P1 receptor-expression CHO cells were subjected to 0.25% trypsinization, then recovered from the dish, and floated in a Ham's F-12 culture medium containing 10% fetal bovine serum, and 300 μg/mL of Geneticin. Then, the human S1P1 receptor-expression CHO cells were seeded into a 96-well black clear bottom plate (BD Falcon Biocoat) at 2.5×10^4/100 μL/well. […]
After incubating for 1 hour, the wells were washed 3 times with 100 μL of the Hanks-HEPES buffer. […] Then, 25 μL of the same buffer dissolved with DMSO, or S1P prepared at 5 times the concentration of the final concentration based on serial dilution or the test compound (final concentration of 0.1 nM, 1 nM, 10 nM, 100 nM, 1 μM, and 10 μM) was added, and the fluorescence based on the Fluo3 due to calcium mobilization was detected and measured at an excitation wavelength of 485 nm and a detection wavelength of 525 nm using the same apparatus. Based on the measurement data, the increase in fluorescence was calculated by subtracting the minimum fluorescence intensity from the maximum fluorescence intensity. […]

Experiment [2] has as its target T1, S1P1 receptor. In words: Antagonistic action on the S1P1 receptor by the method of Experiment Example 1 (Kd). It is filed as cell-based. The arrangement: expressed in transfected cells.
Experiment [3] has as its target T2, Human S1P3 receptor (Homo sapiens, UniProt Q99500).
T2 construct: expressed in transfected cells; host or cells: CHO cells (Geneticin selection)
In words: Suppression of S1P-induced cellular calcium mobilization in human S1P3 receptor-expression CHO cells (Schild plot, Kd). The format is cell-based. The settings on record: Fluo3 calcium mobilization by S1P, Schild plot analysis, read-out: S1P3 dissociation constant Kd. Here is the method: Suppression Effect of Test Compound Against Cellular Calcium Mobilization of Human S1P3 Receptor-Expression Cell by S1P (Sphingosine 1-Phosphoric Acid)
Human S1P3 receptor-expression CHO cells were subcultured in a Ham's F-12 culture medium containing 10% fetal bovine serum, and 300 μg/mL of Geneticin The human S1P3 receptor-expression CHO cells were subjected to 0.25% trypsinization, then recovered from the dish, and floated in a Ham's F-12 culture medium containing 10% fetal bovine serum, and 300 μg/mL of Geneticin. Then, the human S1P3 receptor-expression CHO cells were seeded into a 96-well black clear bottom plate (BD Falcon Biocoat) at 2.5×10^4/100 μL/well. The human S1P3 receptor-expression CHO cells were then cultivated for […] at 37° C. under 5% CO2 environment. The next day, the wells were washed with a Ham's F-12 culture medium containing 100 μL of 0.1% fatty acid-free bovine serum albumin (BSA). This washing treatment was carried out 3 times. The culture medium was exchanged with a Ham's F-12 culture medium containing 0.1% BSA, and then starved of serum for 6 hours in a CO2 incubator set at 37° C.
The culture medium was thrown away after the 6 hours. Then, 50 μL/well of a Fluo3 loading buffer was added, and the cultures were cultivated for further 1 hour. The Fluo3 loading buffer was prepared as follows. First, equal amounts of Fluo3-AM (Dojindo) and pluronic F-127 (20% DMSO solution, invitrogen) weremixed. Then, the mixture of Fluo3-AM andpluronic F-127 was added into a Hanks-HEPES buffer (Hanks balanced salt solution containing 20 mM HEPES (pH 7.4), 0.1% BSA (fatty acid-free), and 2.5 mM probenecid) to form a Fluo3 loading buffer having a final Fluo3-AM concentration of 4 μM.
After incubating for 1 hour, the wells were washed 3 times with 100 μL of the Hanks-HEPES buffer. 100 μL of the same buffer in which a test compound (0.125 nM, 1.25 nM, 12.5 nM, 125 nM, 1.25 μM) or DMSO had been dissolved were added to the each well, and then incubated for 30 minutes at 37° C. in a microplate spectrophotofluorometer (FLEX Station (Molecular Device Co., Ltd.)). Then, 25 μL of S1P prepared at 5 times the concentration of the final concentration based on serial dilution (final concentration of 0.1 nM, 1 nM, 10 nM, 100 nM, and 1 μM) was added, and the fluorescence based on the Fluo3 due to calcium mobilization was detected and measured at an excitation wavelength of 485 nm and a detection wavelength of 525 nm using an same apparatus. Based on the measurement data, the increase in fluorescence was calculated by subtracting the minimum fluorescence intensity from the maximum fluorescence intensity. The calculated increase in fluorescence was used to perform a curve approximation of the relationship between the S1P concentration and the increase in fluorescence using PRISM 4 software (GraphPad). Based on the results, the EC50 value of the compound-untreated and the EC50 value of the compound-treated at each concentration was calculated. Based on these values, Schild plot analysis was carried out in order to determine the dissociation constant Kd. In Table 1, 1 nmol/L>Kd value≧0.1 nmol/L is indicated as “+”, 0.1 nmol/L>Kd value≧0.01 nmol/L is indicated as “++”, and 0.01 nmol/L>Kd value is indicated as “+++”.

Experiment [4] relates to Cecal ligation and puncture (CLP) sepsis. Put plainly: Cecal ligation and puncture sepsis model, survival. As to conditions: CLP rats. The format is in vivo, Wistar rats. Here is the method: Cecal Ligation and Puncture Sepsis Model
This model is widely used as a model for polymicrobial abdominal sepsis caused by leakage of intestinal bacteria. The experiment was carried out with reference to the method described in Non-Patent Literature 9 (D. Rittirsch et al., Nature Protocols, 4, 31 (2009)).
Preparation of Cecalligation and Puncture (CLP) Sepsis Mice
Wistar rats (Charles River Laboratories, Japan Inc., male 8 W) were used. The abdominal portion of the rats was cut open under isoflurane anesthesia, and the appendix was exteriorized. The appendix was ligated with sterilized silk thread, and 10 holes were opened in the tip portion of the appendix using an 18 G syringe needle. After the treatment, the appendix was returned to the body, and the wound was sutured. Further, physiological saline was subcutaneously administered at a dose of 30 mL/kg. The rats were then returned to their cages, and observed for 7 days to determine the survival rate.
Test Compound Administration Method
The test compound was continuously administered via a cannula stuck in the femoral vein at a dose of 0.1 mg/kg/hr. Administration of the test compound was started 1 hour after the CLP procedure was finished.

T2 sequence (Q99500 whole entry): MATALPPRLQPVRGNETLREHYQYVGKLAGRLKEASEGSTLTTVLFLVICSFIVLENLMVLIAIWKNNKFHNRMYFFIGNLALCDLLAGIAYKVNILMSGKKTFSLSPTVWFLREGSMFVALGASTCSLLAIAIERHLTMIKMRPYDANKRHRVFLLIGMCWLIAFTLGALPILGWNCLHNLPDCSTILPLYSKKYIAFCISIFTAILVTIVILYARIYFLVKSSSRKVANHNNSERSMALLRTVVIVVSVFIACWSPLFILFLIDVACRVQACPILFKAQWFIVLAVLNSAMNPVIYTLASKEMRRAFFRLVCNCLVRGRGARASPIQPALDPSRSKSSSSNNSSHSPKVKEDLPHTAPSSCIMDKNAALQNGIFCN
T1 sequence (P21453 whole entry): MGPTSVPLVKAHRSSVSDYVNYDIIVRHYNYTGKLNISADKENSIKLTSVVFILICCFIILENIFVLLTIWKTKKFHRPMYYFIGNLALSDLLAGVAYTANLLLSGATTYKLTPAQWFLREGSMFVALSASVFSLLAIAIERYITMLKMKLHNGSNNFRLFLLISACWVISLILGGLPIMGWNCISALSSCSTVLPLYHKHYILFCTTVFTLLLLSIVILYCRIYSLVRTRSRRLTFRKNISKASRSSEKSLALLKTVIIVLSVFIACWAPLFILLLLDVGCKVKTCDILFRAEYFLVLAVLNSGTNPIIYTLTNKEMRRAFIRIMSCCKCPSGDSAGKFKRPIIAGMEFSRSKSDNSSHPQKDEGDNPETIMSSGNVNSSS

Consider `C=CC[C@](N)(CCc1ccc(Sc2cc(OCC)ccc2O)cc1Cl)COP(=O)(O)O` [Example 1, (R)-2-allyl-2-amino-4-{2-chloro-4-(5-ethoxy-2-hydroxyphenylthio)phenyl}butylphosphoric acid monoester], for which, in experiment [1], the half-maximal effective concentration (EC50) is greater than 10000 nM. For the same compound, the Kd was 2.66 nM in experiment [2] and less than 0.01 nM in experiment [3].
Take `CCC[C@](N)(CCc1ccc(Sc2cc(OCC)ccc2O)cc1Cl)COP(=O)(O)O` [Example 2, (S)-2-amino-4-{2-chloro-4-(5-ethoxy-2-hydroxyphenylthio)phenyl}-2-propylbutylphosphoric acid monoester]: the EC50 in experiment [1] is greater than 10000 nM. Moreover, the dissociation constant (Kd) was 1.6 nM in experiment [2] and less than 0.01 nM in experiment [3]. Also, the “survival lengthening action, Log-rank test p” value in experiment [4] (0.1 mg/kg/hr continuous via femoral vein from 1 hour after CLP, vs medium administration group) was less than 0.01. Besides, in experiment [4] (0.1 mg/kg/hr continuous via femoral vein, after 3 days), the “survival rate, test subjects alive after 3 days” value is 25%. Besides, in experiment [4] (0.1 mg/kg/hr continuous via femoral vein, after 7 days), the “survival rate, test subjects alive after 7 days” value came to 12.5%.
For the compound `N[C@@](CCCO)(CCc1ccc(Sc2cc(C3CC3)ccc2O)cc1Cl)COP(=O)(O)O` [compound 19], in experiment [3], the equilibrium dissociation constant (Kd) lay in the range of 0.1 to 1 nM.
The same measure, in the same setting: the result for `C=CC[C@](N)(CCc1ccc(Sc2cc(C#N)ccc2O)cc1Cl)COP(=O)(O)O` [compound 28, (R)-2-allyl-2-amino-4-{2-chloro-4-(5-cyano-2-hydroxyphenylthio)phenyl}butylphosphoric acid monoester] reads 0.1 to 1 nM; that for `CCC[C@](N)(CCc1ccc(Sc2cc(C#N)ccc2O)cc1Cl)COP(=O)(O)O` [compound 35, (S)-2-amino-4-[2-chloro-4-(5-cyano-2-hydroxyphenylthio)Phenyl]-2-propylbutylphosphoric acid monoester], 0.1 to 1 nM; that for `CCC[C@](N)(CCc1ccc(Sc2cc(C(C)=O)ccc2O)cc1Cl)COP(=O)(O)O` [compound 36, (S)-4-[4-(5-acetyl-2-hydroxyphenylthio)-2-chlorophenyl]-2-amin o-2-propylbutylphosphoric acid monoester], 0.1 to 1 nM.
